Reference: patent US20180015167A1, “CROSSLINKABLE TREHALOSE FOR THE COVALENT INCORPORATION IN HYDROGELS AND METHODS OF USE” (INVIVO THERAPEUTICS CORPORATION, priority 2013, published 2018)

Assay: Solubility of hydrogel precursors in water / aqueous buffer
Type: physicochemical
Protocol: Hydrogels formed by mixing trehalose diacrylate and thiol-containing 4-arm PEG of molecular weight 5000 (4arm-PEG5k-SH). Briefly, trehalose diacrylate was dissolved in PBS (pH7.4, 1.06 mM potassium phosphate monobasic, 150 mM sodium chloride, 2.97 mM sodium phosphate dibasic) to prepare a trehalose-containing precursor solution at a concentration of 50 mg/ml. 9.42 mg 4arm-PEG5k-SH (0.0075 mmol thiols) was dissolved in 66.1 μl PBS and the solution was mixed with 33.9 μl trehalose diacrylate solution (1.7 mg, 1 molar equivalents based on thiols) and by vortexing.
Hydrogels formed by mixing ethoxylated-trimethylolpropan tri(thioglycolate) (TMPE-TGA), PEG diacrylate, and varying amounts of trehalose diacrylate. The following protocol has been used for gel formulation at the 150 μl scale. Briefly, TMPE-TGA was dissolved in PBS to prepare a 40 wt % thiol-containing precursor solution. Trehalose diacrylate was dissolved in PBS to prepare a trehalose-containing precursor solution at a concentration of 40 mg/ml. 10.875 mg PEG diacrylate of molecular weight 700 (PEGDA700, 0.75 molar equivalents based on thiols) was dissolved in 49.94 μl PBS and the solution was mixed with 58.3 μl trehalose diacrylate solution (2.33 mg, 0.25 molar equivalents based on thiols) and 41.8 μl TMPE-TGA solution (0.041 mmol thiols) by vortexing. […]

In the case of C=CC(=O)OC[C@H]1O[C@H](O[C@H]2O[C@H](COC(=O)C=C)[C@@H](O)[C@H](O)[C@H]2O)[C@H](O)[C@@H](O)[C@@H]1O [trehalose diacrylate], the “solubility in aqueous buffer” value (PBS pH7.4, room temperature) is reported as “soluble in aqueous buffer” and the water solubility (PBS, room temperature) is reported as “water soluble”.
